1 compound from US20160361311A1, “LIGANDS THAT TARGET HEPATITIS C VIRUS E2 PROTEIN” (AMERICAN UNIVERSITY OF CAIRO, priority 2014, published 2016) can be followed below.

Series [1] concerns HCVpp 2a. Briefly: HCVpp 2a infection of Huh-7 cells, 96-well (luciferase). Format: cell-based, HCV. Particulars: Hepatitis C virus, Huh-7, 30 h, read-out: IC50 HCVpp. The method, then:
(§1) Pseudotyped retroviral particles harboring HCV envelope proteins (HCVpp) from different genotypes were produced as described previously. A plasmid encoding the feline endogenous virus RD114 glycoprotein [35] was used for the production of RD114pp. Both HCVpp and RD114pp expressed Firefly luciferase.
(§2) To identify ligands that inhibit HCV infection, Huh-7 cells were seeded in 96-well plates and treated the day after with six different concentrations of each ligand diluted in DMSO in duplicate using a Zephyr automated liquid handling workstation (Caliper BioSciences, Hopkinton, Mass.). The final concentration of DMSO (1%) was adjusted to be the same for all ligand concentrations. Cells treated with DMSO were used as negative controls. Cells treated with different concentrations of anti-CD81 (JS-81 from BD Pharmingen, San Jose, Calif.) 1 hour before infection, were also used as positive controls. The third day, RD114pp, HCVpp or HCVcc were inoculated and incubated for 30 hours at 37° C. Firefly and Gaussia luciferase assays were performed as indicated by the manufacturer (Promega, San Luis Obispo, Calif.).
(§3) The remaining ligands were next tested against pseudotyped retroviral particles harboring genotype-2a HCV envelope proteins (HCVpp 2a), cell culture produced HCV particles (HCVcc) or RD114pp. As a positive control, an anti-CD81 antibody was used in parallel.

The subject of series [2] is HCV genotypes 1a, 1b, 2a, 2b, 4a and 6a. Briefly: HCVpp infection assays over all genotypes tested (summary statements). Format: cell-based. The method, then: as §1, §2
The analysis of the effect of 281816 ligand on Huh-7 infection by HCVpp bearing envelope proteins from different genotypes was performed in 24-well plates using the method described above. […]

Series [3] in a line: MTS viability / hepatocyte toxicity assay. Format: cell-based. Particulars: human. The method, then: (§4) The analysis of the effect of 281816 ligand on Huh-7 infection by HCVpp bearing envelope proteins from different genotypes was performed in 24-well plates using the method described above. This ligand was also screened for toxicity to the hepatocytes using the MTS (3-(4,5-dimethylthiazol-2-yl)-5-(3-carboxymethoxyphenyl)-2-(4-sulfophenyl)-2Htetrazolium) assay.
as §3

Series [4] concerns hepatocytes. The series can be described thus: MTS viability / hepatocyte toxicity assay. Format: cell-based. Particulars: over the concentrations tested in the infection assays, highest 10 μM. The method, then:
as §4, §3

For series [5], the target named is T1, HCV E2 protein binding to native CD81 on Raji cells (Hepatitis C virus genotype 1b, UniProt Q9WMX2).
T1 construct: encoding amino acids 384-656 of the Con1 envelope protein 2 ectodomain (eE2); Protein A (C); made in house; host or cells: E2: HEK293T cells (inferred); CD81: endogenous on Raji cells
The series can be described thus: Flow cytometry: recombinant HCV E2 binding to native CD81 on Raji cells. Format: cell-based, human. Particulars: E2 pre-incubated with 1-400 μM ligand; flow cytometry MFI. The method, then: The human B cell line, Raji, which expresses high levels of CD81 on its surface was used to determine if ligands could inhibit the binding of HCV-E2 protein to native CD81. Cells were grown in RPMI medium (10% fetal calf serum, 1% penicillin/streptomycin, 1% L-glutamine, 1% non-essential amino acids, 1% sodium pyruvate, pH 7.4) at 37° C. in an atmosphere of 5% CO2. Purified HCV-E2 protein (4 μg) was pre-incubated with 1,5,15, 50, 100 or 400 μM of the ligand 281816 for 25 min RT. After pre-incubation the E2-ligand complex was added to the cells and incubated for 25 min. The complexes were washed from the cells and 0.5 μg of anti E2 antibody (clone H53) was added followed by secondary anti mouse-FITC (Southern Biotechnology). The cells were washed, fixed with 3% paraformaldehyde, and analyzed by flow cytometry (BD FACSCalibur, software: Cell Quest Pro) analysis. The mean fluorescence intensity (MFI) was calculated using Flowjo software (TreesStar, www.flowjo.com).
Ligand 281816 was selected based on the prediction by docking that it would bind to a site on the HCV E2 protein where CD81 binds. To confirm that the binding of 281816 to E2 inhibits the HCV E2-CD81 interaction, flow cytometry was used to monitor the binding of a recombinant form of the E2 protein to native CD81 overexpressed on Raji cells as a function of 281816 concentration.

pIC50: −log10 of the molar value.

T1 sequence (Q9WMX2 384-656): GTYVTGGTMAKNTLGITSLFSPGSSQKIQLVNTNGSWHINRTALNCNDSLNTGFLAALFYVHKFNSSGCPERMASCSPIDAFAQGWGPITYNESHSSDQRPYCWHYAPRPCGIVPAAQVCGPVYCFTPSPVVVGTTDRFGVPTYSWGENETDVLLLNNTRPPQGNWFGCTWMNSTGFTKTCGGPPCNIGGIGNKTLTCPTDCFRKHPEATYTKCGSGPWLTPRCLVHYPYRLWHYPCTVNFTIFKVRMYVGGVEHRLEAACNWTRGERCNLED

Regarding `CSc1ccc2c(c1)C(N1CCN(C)CC1)Cc1ccccc1S2` (stereo not drawn) [Ligand 281816], the pIC50 is 5.99 in series [1] and 5.34 to 5.66 in series [2] (Hepatitis C virus, read-out: IC50 range over HCV genotypes). Moreover, in series [2] (genotypes 1a, 1b, 2a, 2b, 4a and 6a), the “block of hepatocyte infection (in words)” value was “block infection of hepatocytes by each of the HCV genotypes and subtypes tested”. The compound also registered a CC50 in series [3] of 14 µM. Moreover, the hepatocyte toxicity result in series [4] is on record as “not observed”. For the same compound, the “inhibition of E2 protein binding to CD81 on Raji cells” value in series [5] is reported as “inhibited by 281816 in a dose-dependent manner up to 100 μM”.

In general, pIC50 refers to the IC50 on a negative log10 scale, so that one unit is a factor of ten. As a reminder, the CC50 is the concentration that lowers cell viability or growth by half. Lower therefore signals harm at low concentration.
